Patent publication US6352836B1 (priority 1997, dated 2002)
Like-named read-outs stand apart in the source and are kept apart here.

Target: PHIS-PDiTPx2235 (Dirofilaria immitis, UniProt O17433)
Format: biochemical, D. immitis
Conditions: for Percent protection (Mean ± SD): PHIS-PDiTPx2235 0.75 mg/ml, DTT 10 mM

Sequence of PHIS-PDiTPx2235 (O17433 whole entry, looked up): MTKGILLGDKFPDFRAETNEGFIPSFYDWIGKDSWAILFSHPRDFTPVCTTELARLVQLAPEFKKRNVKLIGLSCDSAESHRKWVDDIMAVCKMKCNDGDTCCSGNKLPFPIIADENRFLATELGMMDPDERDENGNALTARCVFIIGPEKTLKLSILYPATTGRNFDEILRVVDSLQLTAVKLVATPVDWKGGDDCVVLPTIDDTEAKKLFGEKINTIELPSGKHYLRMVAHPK

## CCN1C(=O)C=CC1=O [NEM, N-ethylmaleimide]
NEM 0.1 mM
  Percent protection (Mean ± SD): 97.3 ± 2.40%
NEM 1.0 mM
  Percent protection (Mean ± SD): 76.7 ± 1.13%
NEM 2.0 mM
  Percent protection (Mean ± SD): 77.9 ± 1.87%
NEM 4.0 mM
  Percent protection (Mean ± SD): 58.4 ± 1.57%
NEM 8.0 mM
  Percent protection (Mean ± SD): 21.1 ± 0.33%
NEM 16.0 mM
  Percent protection (Mean ± SD): 0.0 ± 0.0%
NEM 32.0 mM
  Percent protection (Mean ± SD): 0.0 ± 0.0%
Inhibition concentration dependent (Table 5)
  inhibition of H2O2 removal by PHIS-PDiTPx2235: prevented PHIS-PDiTPx2235 from removing H2O2
